This is an account of results in ChEMBL document CHEMBL3639182, “Nitrogen containing heteroaryl compounds” (2014).

Molecules are shown by their SMILES.

cAMP and cAMP-inhibited cGMP 3',5'-cyclic phosphodiesterase 10A, sequence (Q9Y233 whole entry): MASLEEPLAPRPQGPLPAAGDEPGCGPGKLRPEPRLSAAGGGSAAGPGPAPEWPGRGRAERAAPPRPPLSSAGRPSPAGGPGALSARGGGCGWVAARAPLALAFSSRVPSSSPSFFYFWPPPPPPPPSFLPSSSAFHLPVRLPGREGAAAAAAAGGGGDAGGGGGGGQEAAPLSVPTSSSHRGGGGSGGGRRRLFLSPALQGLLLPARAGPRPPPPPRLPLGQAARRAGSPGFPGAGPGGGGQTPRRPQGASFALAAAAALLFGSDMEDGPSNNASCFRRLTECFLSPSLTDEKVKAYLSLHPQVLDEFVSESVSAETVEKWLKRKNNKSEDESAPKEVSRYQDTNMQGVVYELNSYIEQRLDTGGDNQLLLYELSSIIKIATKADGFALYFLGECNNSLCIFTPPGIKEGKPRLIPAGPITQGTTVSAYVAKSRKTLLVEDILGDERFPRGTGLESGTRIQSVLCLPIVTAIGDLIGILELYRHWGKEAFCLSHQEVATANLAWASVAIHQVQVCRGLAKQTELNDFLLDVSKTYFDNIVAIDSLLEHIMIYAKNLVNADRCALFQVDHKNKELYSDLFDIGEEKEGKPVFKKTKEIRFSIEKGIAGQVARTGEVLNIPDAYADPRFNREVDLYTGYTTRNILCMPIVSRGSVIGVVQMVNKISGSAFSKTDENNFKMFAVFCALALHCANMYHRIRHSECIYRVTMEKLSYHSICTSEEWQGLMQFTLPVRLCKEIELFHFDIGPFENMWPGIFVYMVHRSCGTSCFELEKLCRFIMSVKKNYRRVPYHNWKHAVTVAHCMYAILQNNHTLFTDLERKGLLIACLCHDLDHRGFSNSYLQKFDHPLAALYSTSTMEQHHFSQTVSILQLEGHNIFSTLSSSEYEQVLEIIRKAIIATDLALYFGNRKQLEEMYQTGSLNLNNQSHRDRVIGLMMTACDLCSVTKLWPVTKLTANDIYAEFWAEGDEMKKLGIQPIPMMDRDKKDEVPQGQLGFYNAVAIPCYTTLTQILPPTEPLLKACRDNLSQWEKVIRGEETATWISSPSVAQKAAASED

This assay has as its target cAMP and cAMP-inhibited cGMP 3',5'-cyclic phosphodiesterase 10A (Homo sapiens, UniProt Q9Y233). The assay can be described thus: Scintillation Proximity Assay : PDE10 activity of the compounds of the present invention was determined using a Scintillation Proximity Assay (SPA)-based method similar to the one previously described (Fawcett, L. et al., Proc Natl Acad Sci USA (2000) 97(7):3702-3707). The human PDE10A full length assay was performed in 96-well micro titer plates. The reaction mixture of 50 μl contained 20 mM HEPES pH=7.5/10 mM MgCl2/0.05 mg/ml BSA (Sigma cat. # A-7906), 50 nM cGMP (Sigma, cat. # G6129) and 50 nM [3H]-cGMP (GE Healthcare, cat. # TRK392 S.A. 13.2 Ci/mmol), 3.75 ng/well PDE10A enzyme (Enzo Life Science, Lausen, Switzerland cat #SE-534) with or without a specific test compound.
For `Cn1ncc(NC(=O)c2nc(C3CC3)cnc2Nc2cncnc2)c1C(=O)NC1COC1`, the concentration for half-maximal inhibition (IC50) came out at 6.6 nM.
Then `CC(CO)CNC(=O)c1c(NC(=O)c2nc(C3CC3)cnc2Nc2cncnc2)cnn1C` (centres undefined), with 1.5 nM; and `CN(C)C(=O)c1c(NC(=O)c2nc(C3CC3)cnc2Nc2cncnc2)cnn1C`, with 32.2 nM.
Turning to `CNC(=O)c1c(NC(=O)c2nc(C3CC3)cnc2Nc2cncnc2)cnn1CC(F)(F)F`, the half-inhibitory concentration (IC50) turned out to be 27 nM.
Turning to `COCc1ccc(NC(=O)c2nc(C3CC3)cnc2Nc2cncnc2)c(C(=O)NCC(C)(C)O)n1`, the half-inhibitory concentration (IC50) worked out at 0.5 nM.
Regarding `COCCOc1ccc(NC(=O)c2nc(C3CC3)cnc2Nc2cncnc2)c(C(=O)NCC(C)(C)O)c1`, the IC50 was found to be 0.7 nM.
`CN(C(=O)c1ncccc1NC(=O)c1nc(C2CC2)cnc1Nc1cncnc1)C1CCOCC1`: the half-maximal inhibitory concentration (IC50) is 425 nM.
For `CN(CC(F)(F)F)C(=O)c1ncccc1NC(=O)c1nc(C2CC2)cnc1Nc1cncnc1`, the IC50 was determined as 8.1 nM.
The same measure for `CN(C(=O)c1ncccc1NC(=O)c1nc(C2CC2)cnc1Nc1cncnc1)C1CC1`: 26.8 nM; for `CC1CCCCN1C(=O)c1ncccc1NC(=O)c1nc(C2CC2)cnc1Nc1cncnc1` (centres undefined): 15.9 nM.
The same measure for `CC(C)(O)CNC(=O)c1cc(C#N)ccc1NC(=O)c1nc(C2CC2)cnc1Nc1cncnc1`: 0.7 nM; for `CNC(=O)c1cc(NC(C)=O)ccc1NC(=O)c1nc(C2CC2)cnc1Nc1cncnc1`: 0.4 nM.
The same measure for `CNC(=O)c1nc(C)ncc1NC(=O)c1nc(C2CC2)cnc1Nc1cncnc1`: 19.3 nM.
As to `CNC(=O)c1ccc(F)c(F)c1NC(=O)c1nc(C2CC2)cnc1Nc1cncnc1`, the IC50 came to 1.8 nM.
